Values of other authors in patent US20020048798A1, “Novel antioxidants” (priority 2000, published 2002).

Conditions: factor relative to the racemate of α-lipoic acid

O=C(O)CCCC[C@@H]1CCSS1 [R-α-lipoic acid]
anti-inflammatory activity, stronger by a factor than that of the racemate: 10
